From PubChem BioAssay (NCI)
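Five compound concentrations were applied to cells in 96-well plates for 48 hours; endpoints were derived by simple linear interpolation of the resulting dose-response curve. Abbreviation: GI50, concentration required for 50% inhibition of growth. TGI: total growth inhibition.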

Key:
Experiment in all cases: NCI-60 cell line screen, 48 h
MDA-MB-231 breast = system: MDA-MB-231 breast
MDA-MB-435 = system: MDA-MB-435
SR leukemia = system: SR leukemia
ACHN renal = system: ACHN renal
HS 578T breast = system: HS 578T breast
MCF7 breast = system: MCF7 breast
NCI-H226 lung = system: NCI-H226 lung
NCI/ADR-RES ovarian = system: NCI/ADR-RES ovarian
T-47D breast = system: T-47D breast
DLD-1 colon = system: DLD-1 colon
KM20L2 colon = system: KM20L2 colon

SMILES	TGI (MDA-MB-231 breast)	TGI (MDA-MB-435)	TGI (SR leukemia)	GI50 (ACHN renal)	TGI (ACHN renal)	GI50 (HS 578T breast)	TGI (HS 578T breast)	GI50 (MCF7 breast)	TGI (MCF7 breast)	GI50 (MDA-MB-231 breast)	GI50 (MDA-MB-435)	GI50 (NCI-H226 lung)	TGI (NCI-H226 lung)	GI50 (NCI/ADR-RES ovarian)	TGI (NCI/ADR-RES ovarian)	GI50 (SR leukemia)	GI50 (T-47D breast)	TGI (T-47D breast)	TGI (DLD-1 colon)	TGI (KM20L2 colon)
CO[C@](C(=O)OC[C@H]1[C@@H](COC(C)=O)[C@@H]2O[C@H]1c1cc3c(cc12)OCO3)(c1ccccc1)C(F)(F)F	> 100 µM	> 100 µM	> 100 µM																	
COc1cc(/C=C2\CN(S(=O)(=O)c3ccc(C)cc3)C/C(=C\c3cc(CN4CCCC4)c(O)c(OC)c3)C2=O)cc(CN2CCCC2)c1O	3.53 µM	2.97 µM	3.45 µM	1380 nM	2.71 µM	2730 nM	7.72 µM	967 nM	3.93 µM	1800 nM	1530 nM	1630 nM	3.16 µM	12 µM	> 100 µM	412 nM	1420 nM	3.79 µM		
Oc1ccc(NCn2c(=S)sc3ccccc32)cc1	> 100 µM	> 100 µM			> 100 µM		> 100 µM		> 100 µM						> 100 µM			> 100 µM		
CON(C)C(=O)C(Cc1ccccc1)NC(=O)OCc1ccccc1 (stereo unspecified)			> 100 µM		> 100 µM														> 100 µM	> 100 µM
CCOC(=O)c1csc(NC(=O)CN2CCCC2)n1	> 100 µM	> 100 µM	> 100 µM		> 100 µM		> 100 µM		> 100 µM				> 100 µM		> 100 µM			> 100 µM		
O=C(CC1Sc2ccccc2NC1=O)Nc1ccccc1[N+](=O)[O-] (stereo unspecified)			> 100 µM		> 100 µM								> 100 µM						> 100 µM	> 100 µM
CC1NC(=O)C(C)C(c2ccccc2)N(N=O)C1c1ccccc1 (stereo unspecified)									> 100 µM				> 100 µM		> 100 µM				> 100 µM	> 100 µM
